From US20190211020A1 (Agency for Science, Technology and Research, priority 2012, published 2019)

Test system: eIF4E Ser209 phosphorylation in Hela cells
Assay: MNK cell-based assay (AlphaScreen SureFire, eIF4E Ser209 phosphorylation)
Conditions: Homo sapiens; eIF4E Ser209 phosphorylation, Hela cells, 2 hours; read-out: IC50 Hela
From the text: It has been reported that Ser209 of eIF4E is solely phosphorylated by the MNK enzymes. The ability of compounds to inhibit this process in Hela cells was investigated using the AlphaScreen SureFire® assay platform from Perkin Elmer (Waltham, Mass.). eIF4E phosphorylated on Ser209 is recognized by two antibodies, the first which is fused to a streptavidin coated donor bead binds to an epitope away from Ser209, the second which is fused to a protein A conjugated acceptor bead binds to phosphorylated Ser209. The phosphorylation of eIF4E on Ser209 brings the two antibodies into close proximity and when excited by a laser a singlet oxygen is released by the donor bead which excites the acceptor bead resulting in the emission of light. This enables the monitoring of eIF4E Ser209 phosphorylation and its inhibition in a cellular context.
Hela cells were seeded into microtitre plates (30,000 cells per well) in 100 μl of culture medium and incubated at 37° C. for 24 hours. The media was then removed by aspiration and the cells resuspended in 50 μl of serum free medium containing the test compound and incubated at 37° C. for 2 hours. The culture medium was again removed by aspiration and the cells resuspended in lysis buffer (provided in Perkin Elmer SureFire® Assay Kit). After agitation at 350 rpm for 20 minutes at 22° C., 4 μl was transferred to a 384 well OptiPlate™ (Perkin Elmer, Waltham, Mass.). To each well was added 5 μl of acceptor mix; the plate was sealed and agitated gently at 22° C. for 2 hours. Then, in subdued light, 2 μl of donor mix was added to each well, the plate was sealed, wrapped in aluminum foil and agitated gently at 22° C. for 2 hours. Emission was measured using the EnVision® plate reader (Perkin Elmer, Waltham, Mass.).
Inhibition constants (IC50) were determined by plotting AlphaScreen signal versus log compound concentration and fitting with a non-linear regression algorithm using GraphPad Prism (GraphPad Software Inc.).

**Q.** For `N#Cc1ccc(-c2cnc3ccc(-c4ccc(C(=O)N5CCNCC5)cc4)nn23)cc1` [Example 65, 4-(6-(4-(piperazine-1-carbonyl)phenyl)imidazo [1,2-b]pyridazin-3-yl)benzonitrile], which IC50 is on record?
**A.** Its IC50 is under 1000 nM.

**Q.** For `CCC1(NC(C)=O)CCN(C(=O)c2ccc(-c3ccc4ncc(-c5ccc(C#N)cc5)n4n3)cc2)CC1` [Example 66, N-(1-(4-(3-(4-cyanophenyl)imidazo[1,2-b]pyridazin-6-yl)benzoyl)-4-ethylpiperidin-4-yl)acetamide], which IC50 is on record?
**A.** The IC50 was under 1000 nM.

**Q.** With `N#Cc1ccc(-c2cnc3ccc(-c4ccc(C(=O)N5CCNC(=O)C5)cc4)nn23)cc1` [Example 68, 4-(6-(4-(3-oxopiperazine-1-carbonyl)phenyl)imidazo [1,2-b]pyridazin-3-yl)benzonitrile] as the molecule, how does the IC50 read?
**A.** The IC50 was under 1000 nM.

**Q.** With `CN1CCN(C(=O)c2ccc(-c3ccc4ncc(-c5ccc(C#N)cc5)n4n3)cc2)CC1=O` [Example 69, 4-(6-(4-(4-methyl-3-oxopiperazine-1-carbonyl)phenyl)imidazo[1,2-b]pyridazin-3-yl)benzonitrile] as the molecule, how does the IC50 read?
**A.** The IC50 was under 1000 nM.

**Q.** `CN1CCN(C2CCN(C(=O)c3ccc(-c4ccc5ncc(-c6ccc(C#N)cc6)n5n4)cc3)CC2)CC1` [Example 70, 4-(6-(4-(4-(4-methylpiperazin-1-yl)piperidine-1-carbonyl)phenyl)imidazo [1,2-b]pyridazin-3-yl)benzonitrile] was tested. Which IC50 did it give?
**A.** Its IC50 is under 1000 nM.

**Q.** `N#Cc1ccc(-c2cnc3ccc(-c4ccc(C(=O)N5CCC6(CCCCN6)CC5)cc4)nn23)cc1` [Example 71, 4-(6-(4-(1,9-diazaspiro[5.5]undecane-9-carbonyl)phenyl)imidazo [1,2-b]pyridazin-3-yl)benzonitrile] was tested. Which IC50 did it give?
**A.** Its IC50 is under 1000 nM.

**Q.** For `CN1CCN(C(=O)c2ccc(-c3ccc4ncc(-c5ccc(C#N)cc5)n4n3)cc2Cl)CC1` [Example 72, 4-(6-(3-chloro-4-(4-methylpiperazine-1-carbonyl)phenyl)imidazo[1,2-b]pyridazin-3-yl)benzonitrile], which IC50 is on record?
**A.** The IC50 was under 1000 nM.

**Q.** How did the IC50 turn out when `CN1CCN(C(=O)c2ccc(-c3ccc4ncc(-c5ccc(C#N)cc5)n4n3)cc2F)CC1` [Example 73, 4-(6-(3-fluoro-4-(4-methylpiperazine-1-carbonyl)phenyl)imidazo[1,2-b]pyridazin-3-yl)benzonitrile] was run?
**A.** The IC50 was under 1000 nM.

**Q.** How did the IC50 turn out when `Cc1cc(-c2ccc3ncc(-c4ccc(C#N)cc4)n3n2)ccc1C(=O)N1CCN(C)CC1` [Example 74, 4-(6-(3-methyl-4-(4-methylpiperazine-1-carbonyl)phenyl)imidazo[1,2-b]pyridazin-3-yl)benzonitrile] was run?
**A.** The IC50 was under 1000 nM.

**Q.** How did the IC50 turn out when `COc1cc(C(=O)N2CCN(C)CC2)ccc1-c1ccc2ncc(-c3ccc(C#N)cc3)n2n1` [Example 78, 4-(6-(2-methoxy-4-(4-methylpiperazine-1-carbonyl)phenyl)imidazo[1,2-b]pyridazin-3-yl)benzonitrile] was run?
**A.** Its IC50 is under 1000 nM.

**Q.** For `CN1CCN(C(=O)c2ccc(-c3ccc4ncc(-c5ccc(C#N)cc5)n4n3)cc2[N+](=O)[O-])CC1` [Example 79, 4-(6-(4-(4-methylpiperazine-1-carbonyl)-3-nitrophenyl)imidazo[1,2-b]pyridazin-3-yl)benzonitrile], which IC50 is on record?
**A.** Its IC50 is under 1000 nM.

**Q.** How did the IC50 turn out when `CC(=O)Nc1cc(-c2ccc3ncc(-c4ccc(C#N)cc4)n3n2)ccc1C(=O)N1CCC(N(C)C)CC1` [Example 81, N-(5-(3-(4-cyanophenyl)imidazo[1,2-b]pyridazin-6-yl)-2-(4-(dimethylamino)piperidine-1-carbonyl)phenyl)acetamide] was run?
**A.** Its IC50 is under 1000 nM.

**Q.** How did the IC50 turn out when `CN1CCN(C(=O)c2ccc(-c3ccc4ncc(-c5ccc6c(c5)CC(=O)N6)n4n3)cc2)CC1` [Example 85, 5-(6-(4-(4-methylpiperazine-1-carbonyl)phenyl)imidazo [1,2-b]pyridazin-3-yl)indolin-2-one] was run?
**A.** Its IC50 is under 1000 nM.

**Q.** With `CN1CCN(C(=O)c2ccc(-c3ccc4ncc(-c5ccc6[nH]ncc6c5)n4n3)cc2)CC1` [Example 86, (4-(3-(1H-indazol-5-yl)imidazo[1,2-b]pyridazin-6-yl)phenyl)(4-methylpiperazin-1-yl)methanone] as the molecule, how does the IC50 read?
**A.** Its IC50 is under 1000 nM.

**Q.** `CN1CCN(C(=O)c2ccc(-c3ccc4ncc(-c5ccc6[nH]cnc6c5)n4n3)cc2)CC1` [Example 87, (4-(3-(1H-benzo[d]imidazol-5-yl)imidazo[1,2-b]pyridazin-6-yl)phenyl)(4-methylpiperazin-1-yl)methanone] was tested. Which IC50 did it give?
**A.** Its IC50 is under 1000 nM.

**Q.** With `CN1CCN(C2CCN(C(=O)c3ccc(-c4ccc5ncc(-c6ccc7c(c6)CC(=O)N7)n5n4)cc3)CC2)CC1` [Example 89, 5-(6-(4-(4-(4-methylpiperazin-1-yl)piperidine-1-carbonyl)phenyl)imidazo[1,2-b]pyridazin-3-yl)indolin-2-one] as the molecule, how does the IC50 read?
**A.** The IC50 was under 1000 nM.

**Q.** How did the IC50 turn out when `O=C1Cc2cc(-c3cnc4ccc(-c5ccc(C(=O)N6CCC(N7CCOCC7)CC6)cc5)nn34)ccc2N1` [Example 94, 5-(6-(4-(4-morpholinopiperidine-1-carbonyl)phenyl)imidazo[1,2-b]pyridazin-3-yl)indolin-2-one] was run?
**A.** The IC50 was under 1000 nM.

**Q.** How did the IC50 turn out when `CN1CCN(C(=O)c2ccc(-c3ccc4ncc(-c5ccc(C#N)cc5)n4c3)cc2)CC1` [Example 95, 4-(6-(4-(4-Methylpiperazine-1-carbonyl)phenyl)imidazo[1,2-a]pyridin-3-yl)benzonitrile] was run?
**A.** The IC50 was under 1000 nM.

**Q.** `N#Cc1ccc(-c2cnc3ccc(-c4ccc(C(=O)N5CCCOCC5)cc4)cn23)cc1` [Example 97, 4-(6-(4-(1,4-oxazepane-4-carbonyl)phenyl)imidazo [1,2-a]pyridin-3-yl)benzonitrile] was tested. Which IC50 did it give?
**A.** The IC50 was under 1000 nM.

**Q.** With `CCN1CCN(C(=O)c2ccc(-c3ccc4ncc(-c5ccc(C#N)cc5)n4c3)cc2)CC1` [Example 98, 4-(6-(4-(4-ethylpiperazine-1-carbonyl)phenyl)imidazo [1,2-a]pyridin-3-yl)benzonitrile] as the molecule, how does the IC50 read?
**A.** The IC50 was under 1000 nM.

**Q.** `CC(=O)NC1(C)CCN(C(=O)c2ccc(-c3ccc4ncc(-c5ccc(C#N)cc5)n4c3)cc2)CC1` [Example 99, N-(1-(4-(3-(4-cyanophenyl)imidazo[1,2-a]pyridin-6-yl)benzoyl)-4-methylpiperidin-4-yl)acetamide] was tested. Which IC50 did it give?
**A.** The IC50 was under 1000 nM.

**Q.** For `CCN(CC)C1(C)CCN(C(=O)c2ccc(-c3ccc4ncc(-c5ccc(C#N)cc5)n4c3)cc2)CC1` [Example 100, 4-(6-(4-(4-(diethylamino)-4-methylpiperidine-1-carbonyl)phenyl)imidazo[1,2-a]pyridin-3-yl)benzonitrile], which IC50 is on record?
**A.** Its IC50 is under 1000 nM.

**Q.** How did the IC50 turn out when `CN(CC(=O)N1CCOCC1)C(=O)c1ccc(-c2ccc3ncc(-c4ccc(C#N)cc4)n3c2)cc1` [Example 101, 4-(3-(4-cyanophenyl)imidazo[1,2-a]pyridin-6-yl)-N-methyl-N-(2-morpholino-2-oxoethyl)benzamide] was run?
**A.** Its IC50 is under 1000 nM.

**Q.** For `N#Cc1ccc(-c2cnc3ccc(-c4ccc(C(=O)N5CCNC(=O)C5)cc4)cn23)cc1` [Example 102, 4-(6-(4-(3-oxopiperazine-1-carbonyl)phenyl)imidazo[1,2-a]pyridin-3-yl)benzonitrile], which IC50 is on record?
**A.** Its IC50 is under 1000 nM.

**Q.** How did the IC50 turn out when `CN1CCCN(C(=O)c2ccc(-c3ccc4ncc(-c5ccc(C#N)cc5)n4c3)cc2)CC1` [Example 103, 4-(6-(4-(4-methyl-1,4-diazepane-1-carbonyl)phenyl)imidazo[1,2-a]pyridin-3-yl)benzonitrile] was run?
**A.** The IC50 was under 1000 nM.

**Q.** Which IC50 does the source give for `CN1CCC(C2CCN(C(=O)c3ccc(-c4ccc5ncc(-c6ccc(C#N)cc6)n5c4)cc3)CC2)CC1` [Example 105, 4-(6-(4-(1′-methyl-4,4′-bipiperidine-1-carbonyl)phenyl)imidazo[1,2-a]pyridin-3-yl)benzonitrile] here?
**A.** Its IC50 is under 1000 nM.
